In patent US20230322805A1, “NOVEL PYRIMIDODIAZEPINE DERIVATIVES OR USES THEREOF” (SPARK BIOPHARMA, INC., priority 2020, published 2023):
Read-outs that look alike come from different tables or passages of the source.

How the values were obtained:
[1] = molecular target: T1, PDIA3 (Homo sapiens, UniProt P30101); assay: Surface plasmon resonance assay; format: binding; conditions: various concentrations, PBS pH 7.3, 25° C.
T1 sequence (P30101 25-505): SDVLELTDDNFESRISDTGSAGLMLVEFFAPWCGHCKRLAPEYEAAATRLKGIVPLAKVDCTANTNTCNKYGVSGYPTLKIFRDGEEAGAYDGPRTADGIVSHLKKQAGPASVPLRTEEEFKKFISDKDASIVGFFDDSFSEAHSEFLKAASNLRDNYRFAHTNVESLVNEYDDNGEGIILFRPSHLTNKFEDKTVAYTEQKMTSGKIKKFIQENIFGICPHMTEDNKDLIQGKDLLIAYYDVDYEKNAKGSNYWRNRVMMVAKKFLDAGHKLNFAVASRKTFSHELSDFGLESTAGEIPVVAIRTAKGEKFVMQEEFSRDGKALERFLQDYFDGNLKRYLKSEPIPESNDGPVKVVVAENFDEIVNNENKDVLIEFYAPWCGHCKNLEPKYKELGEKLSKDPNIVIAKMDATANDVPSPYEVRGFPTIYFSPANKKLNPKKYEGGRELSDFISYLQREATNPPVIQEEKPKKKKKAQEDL
Experimental: (§1) Surface plasmon resonance (SPR) assays were performed using a Biacore T100 instrument (GE Healthcare). The recombinant PDIA3 or DNAJC3 protein was immobilized on the CM5 sensor chip (GE Healthcare) through an amide bond by activating the carboxy group on the CM5 sensor chip with a 1:1 mixture of N-ethyl-N′-(3-dimethylaminopropyl)-carbodiimide and N-hydroxysuccinimide. Protein immobilization reactions were performed in PBS containing 0.005% Tween 20 at pH 4.7 and pH 5.0 for PDIA3 and DNAJC3, respectively. Binding between compounds and proteins was monitored by injecting compounds at various concentrations into PBS (pH 7.3) containing 3% DMSO and 0.005% Tween 20 at 25° C. Data were analyzed to calculate kinetic parameters by fitting sensor grams with a 1:1 binding model using Biacore T100 evaluation software (GE Healthcare).
(§2) Additionally, it was confirmed whether SB1617 directly binds to PDIA3 and DNAJC3 through surface plasmon resonance (SPR) of Examples 1-11.

[2] = molecular target: T2, DNAJC3 (Homo sapiens, UniProt Q13217); assay: Surface plasmon resonance assay; format: binding; conditions: various concentrations, PBS pH 7.3, 25° C.
T2 sequence (Q13217 32-504): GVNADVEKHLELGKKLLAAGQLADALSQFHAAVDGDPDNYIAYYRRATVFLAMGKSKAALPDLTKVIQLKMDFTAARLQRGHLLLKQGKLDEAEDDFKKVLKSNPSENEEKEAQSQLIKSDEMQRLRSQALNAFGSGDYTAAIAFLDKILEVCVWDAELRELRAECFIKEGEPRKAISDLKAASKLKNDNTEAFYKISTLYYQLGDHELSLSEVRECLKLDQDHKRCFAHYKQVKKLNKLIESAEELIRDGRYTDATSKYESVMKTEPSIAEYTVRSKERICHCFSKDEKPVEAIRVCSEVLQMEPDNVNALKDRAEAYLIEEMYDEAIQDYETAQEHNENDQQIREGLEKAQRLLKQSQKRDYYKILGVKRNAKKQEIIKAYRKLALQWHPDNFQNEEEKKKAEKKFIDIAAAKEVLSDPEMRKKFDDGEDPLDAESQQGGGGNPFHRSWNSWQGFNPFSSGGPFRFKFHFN
Experimental: as §1, §2

[3] = system: autophagy-related genes regulated by ATF4 in SH-SY5Y cells; assay: RT-qPCR of autophagy-related genes regulated by ATF4; format: cell-based, human; conditions: 5 μM SB1617 with 1 μM thapsigargin, 8 hours, versus thapsigargin alone
Experimental: To analyze the level of autophagy-related genes, SH-SY5Y cells were treated with 1 μM thapsigargin for 8 h in the presence or absence of 5 μM SB1617. Total RNA was extracted using the RNeasy kit (Qiagen) according to the manufacturer's instructions. RNA was quantified using NanoVue (GE Healthcare) and cDNA was prepared with AccuPower CycleScript RT PreMix dT20 (Bioneer) according to the manufacturer's instructions. Quantitative RT-polymerase chain reaction (qRT-PCR) experiments were performed using KAPA SYBR FAST ABI Prism qPCR Master Mix (KAPA Biosystems). Data were analyzed with the comparative Ct method and normalized to housekeeping genes.
5-3. ATF4 is a transcription factor, which rises during elF2a-phosphorylation and upregulates genes related to autophagy and oxidation/reduction control as a recovery mechanism during ER stress. To assure this, 5 μM SB1617 was treated in SH-SY5Y cells for 8 hours in the presence or absence of 1 μM thapsigargin, and then autophagy-related genes regulated by ATF4 were identified with RT-qPCR.

[4] = Blood-brain barrier penetration test in male ICR mice; format: in vivo, mouse; conditions: for concentration at 0.5 h / concentration at 3 h: male, 5 mg/kg
Experimental: After intraperitoneal administration (5 mg/kg, 3.3 mL/kg) of the compound (SB1617, 5% DMSO/[…]) according to the present invention to CD-1 (ICR) male mice (7 weeks old, KOATECH, Korea), blood samples were collected using heparinized tubes at designated time points (0.5 and 3 hours) in the orbital venous plexus, mice were sacrificed, and brain tissues were harvested. Plasma and brain homogenate samples were analyzed with an LC-MS/MS analyzer (Agilent 1260, Agilent 6460). The proportion of the compound according to the invention (SB1617) in brain and plasma was calculated.
6-1. In order to evaluate the suitability of the compound (SB1617) according to this invention in vivo, pharmacokinetic properties and blood-brain barrier penetration properties were identified using male ICR mice according to the methods described in Examples 1-15 and 1-16.
In addition, as shown in FIG. 28 and Table 3, it was confirmed that at least 50% of SB1617 was detected in the brain compared to plasma.

[5] = system: PERK signaling (p-PERK, p-elF2a, ATF4); assay: Time course of PERK activation in SH-SY5Y cells (immunoblot); format: cell-based, human
Experimental: 4-2. PDIA3 and DNAJC3 play a role in regulating tau aggregation by inhibiting the PERK signaling pathway. Accordingly, human neuroblastoma SH-SY5Y cells were treated with 10 μM SB1617, treated with or without thapsigargin, and PERK activation was confirmed over time.
The stress-response potency of SB1617 may be due to upregulation of PDIA3 and DNAJC3 levels or changes in the redox state of partner proteins under ER stress conditions.

Q: Which results are given for CN(Cc1ccc(Cl)cc1)c1ncnc2c1[C@@H]1OC[C@H](CN2)N1S(=O)(=O)c1ccc([N+](=O)[O-])cc1 [Compound 117]?
A: direct binding (SPR) [1]: binds directly; direct binding (SPR) [2]: binds directly; transcription level of autophagy-related genes regulated by ATF4 [3]: increased the transcription level of autophagy-related genes; Kp at 0.5 h ([4]; CD-1 (ICR), mouse, brain, ip, 0.5 h after I.P. 5 mg/kg, read-out: Brain/Plasma ratio): 0.5 ± 0.14; Kp at 3 h ([4]; CD-1 (ICR), mouse, brain, ip, 3 h after I.P. 5 mg/kg, read-out: Brain/Plasma ratio): 0.66 ± 0.21; Kp ([4]; CD-1 (ICR), mouse, in vivo, ip, I.P. 5 mg/kg, read-out: SB1617 detected in the brain compared to plasma): ≥ 0.5; blood-brain barrier crossing ([4]; intraperitoneal injection): sufficient blood-brain barrier crossing; concentration at 0.5 h ([4]; CD-1 (ICR), mouse, in vivo, ip, 0.5 h after I.P. 5 mg/kg, read-out: Concentration, Brain tissue): 421 ± 58.2 ng/mL; concentration at 0.5 h ([4]; CD-1 (ICR), mouse, in vivo, ip, 0.5 h after I.P. 5 mg/kg, read-out: Concentration, Plasma): 885 ± 187 ng/mL; concentration at 3 h ([4]; CD-1 (ICR), mouse, in vivo, ip, 3 h after I.P. 5 mg/kg, read-out: Concentration, Brain tissue): 55.9 ± 5 ng/mL; concentration at 3 h ([4]; CD-1 (ICR), mouse, in vivo, ip, 3 h after I.P. 5 mg/kg, read-out: Concentration, Plasma): 92.4 ± 29.8 ng/mL; PERK activation over time ([5]; 10 μM SB1617, with thapsigargin): prolonged PERK activation; activation of downstream PERK signaling ([5]; 10 μM SB1617, without thapsigargin (absence of cell stress)): not significant
